{"source": "ChEMBL document CHEMBL3507680", "about": "“University of Dundee, Gates Library screen for HepG2 cell viability”", "note": "“And” between values parts separate entries of the source, which are not always exact repeats. Identical values can stand only once.", "data": [{"test": "(§1) Human HepG2 cell viability assay in 384 well format", "format": "toxicity, cell-based", "set-up": "dose 125 nL, time 70.5 hour; cytotoxicity at 70.5 h: concentration not given beside the values", "conditions": "HepG2 cells, read-out: Inhibition", "units": {"cytotoxicity at 70.5 h": "%"}, "values": [{"smiles": "CCOCC1CN(Cc2cnn(C)c2)Cc2c1cnn2CC", "note": "(stereo unspecified)", "cytotoxicity at 70.5 h": 7.67}, {"smiles": "O=C(CCOc1ccccc1)N1CCCC(n2cncn2)C1", "note": "(stereo unspecified)", "cytotoxicity at 70.5 h": 2.02}, {"smiles": "Cc1ccc(N2CCCC3(CCN(C(=O)c4sccc4C)C3)C2)nn1", "note": "(stereo unspecified)", "cytotoxicity at 70.5 h": -4.03}, {"smiles": "Cc1nc(N2CCN(C(=O)c3ccccc3)CC2)c2cnn(C)c2n1", "cytotoxicity at 70.5 h": -0.834}, {"smiles": "O=C(c1ccc[nH]1)N1CCC(c2nccn2Cc2ccncc2)CC1", "cytotoxicity at 70.5 h": -0.778}, {"smiles": "COCCN1CCN(CC(O)c2ccc(OC(F)(F)F)cc2)CC1", "note": "(stereo unspecified)", "cytotoxicity at 70.5 h": -2.07}, {"smiles": "Cn1nc(C(=O)N2CCCC2)c2c1CN(CC1CCOCC1)C2", "cytotoxicity at 70.5 h": 4.3}, {"smiles": "CN(C)C(=O)c1nc(CN2CC(Cc3ccccc3)CC2=O)no1", "note": "(stereo unspecified)", "cytotoxicity at 70.5 h": -2.6}, {"smiles": "CCN(Cc1c(F)cccc1F)C(=O)c1ccncc1O", "cytotoxicity at 70.5 h": -7.76}, {"smiles": "CC(CCn1cccn1)Nc1ccc(-c2nccn2C)nn1", "note": "(stereo unspecified)", "cytotoxicity at 70.5 h": 22.7}, {"smiles": "CCc1cc(NCc2ccc(-n3cncn3)c(C)c2)n(C)n1", "cytotoxicity at 70.5 h": 2.61}, {"smiles": "COc1nc(C)cc(C)c1CNC(=O)N(C)Cc1cnn(C)c1", "cytotoxicity at 70.5 h": -18}, {"smiles": "COC[C@@]12CCO[C@@H]1CCN(Cc1ccccc1OC)C2", "cytotoxicity at 70.5 h": -12.9}, {"smiles": "COc1ccc(-c2cc(C(=O)NCCCn3ccnc3C)n(C)n2)cc1", "cytotoxicity at 70.5 h": -4.65}, {"smiles": "COc1ccccc1CC(C)CC(=O)N(C)Cc1cc(C)on1", "note": "(stereo unspecified)", "cytotoxicity at 70.5 h": 2.26}, {"smiles": "CC(=O)NCCc1cc2nc(-c3ccncc3)ccn2n1", "cytotoxicity at 70.5 h": -4.37}, {"smiles": "O=C(Nc1ccc(F)cc1)N1C[C@H]2C[C@H](C(=O)N3CCCC3)[C@@H](C1)O2", "cytotoxicity at 70.5 h": -9.47}, {"smiles": "COCCC(=O)N1C[C@H]2CN(Cc3cccc(C)c3)C(=O)[C@H]2C1", "cytotoxicity at 70.5 h": -10.7}, {"smiles": "O=C1CC(NS(=O)(=O)N2CCOCC2)CN1CCc1ccccc1", "note": "(stereo unspecified)", "cytotoxicity at 70.5 h": -3.7}, {"smiles": "CN(Cc1ccccn1)C(=O)CC1CCOc2ccccc21", "note": "(stereo unspecified)", "cytotoxicity at 70.5 h": -8.29}, {"smiles": "COc1ccc(NC(=O)C(c2ccc(OC)cc2)N2CCOCC2)cc1", "note": "(stereo unspecified)", "cytotoxicity at 70.5 h": 0.848}, {"smiles": "CN(C)C(=O)c1cn[nH]c1C1CCCN1Cc1nccn1C", "note": "(stereo unspecified)", "cytotoxicity at 70.5 h": 22.5}, {"smiles": "CCc1nnc(CN2CCCC(Cn3nc(C)nc3C)C2)o1", "note": "(stereo unspecified)", "cytotoxicity at 70.5 h": -11.6}, {"smiles": "Cc1ccc(C(CNCc2cccc3c2OCO3)N2CCOCC2)o1", "note": "(stereo unspecified)", "cytotoxicity at 70.5 h": -17}, {"smiles": "Cc1nc(CC2CCN(C(=O)C(c3ccccc3C)N(C)C)CC2)no1", "note": "(stereo unspecified)", "cytotoxicity at 70.5 h": -13.1}, {"smiles": "CSC(CNS(N)(=O)=O)c1cccc(Cl)c1", "note": "(stereo unspecified)", "cytotoxicity at 70.5 h": -1.44}, {"smiles": "CC(=O)N1[C@H](CN(C)C)C[C@@H]2CN(C(=O)c3cccn3C)CC[C@@H]21", "cytotoxicity at 70.5 h": -11.1}, {"smiles": "CC1(NC(=O)CC2CCc3ccccc32)CCOCC1", "note": "(stereo unspecified)", "cytotoxicity at 70.5 h": -2.46}, {"smiles": "Cc1ccc(C(=O)NC2CCCN(CC(N)=O)C2)c(=O)[nH]1", "note": "(stereo unspecified)", "cytotoxicity at 70.5 h": -7.85}, {"smiles": "COCC(O)CN(C)c1ccnc2ccc(Cl)cc12", "note": "(stereo unspecified)", "cytotoxicity at 70.5 h": 13.9}, {"smiles": "CN(Cc1ccc(Cl)s1)C(=O)c1cccc(OCC(N)=O)c1", "cytotoxicity at 70.5 h": -15.3}, {"smiles": "CN(C)CCN1CCC2(CC1)CN(c1cccnc1)C(=O)CO2", "cytotoxicity at 70.5 h": -13.5}, {"smiles": "CSCCc1c(-c2ccccc2)ncn1CCNc1cccnc1", "cytotoxicity at 70.5 h": -8.03}, {"smiles": "O=C(O)c1cc(-c2ccncc2F)cc(S(=O)(=O)N2CCCCCC2)c1", "cytotoxicity at 70.5 h": -23.6}, {"smiles": "Cc1nccc(-c2cccc(NCC(=O)N3CCc4sccc4C3)c2)n1", "cytotoxicity at 70.5 h": 2.9}, {"smiles": "Cc1cc(C)n(C2CCCN(C(=O)c3cccc4c3OCO4)C2)n1", "note": "(stereo unspecified)", "cytotoxicity at 70.5 h": -10.8}, {"smiles": "O=c1ccc(-c2cccs2)nn1CN1CCCCCC1", "cytotoxicity at 70.5 h": -24.8}, {"smiles": "CCN(CC)CCn1cc(NC2CCSCC2)cn1", "cytotoxicity at 70.5 h": -1.75}, {"smiles": "Cc1csc(CN(C)CCCOc2cccc(C#N)c2)n1", "cytotoxicity at 70.5 h": 13.7}, {"smiles": "O=C(c1[nH]c2ccc(Cl)cc2c1Cl)N1CCC2(CC1)OCCO2", "cytotoxicity at 70.5 h": -0.999}, {"smiles": "NC(=O)C1CCN(C(=O)NCCOc2ccc3c(c2)CCC3)CC1", "cytotoxicity at 70.5 h": -6.38}, {"smiles": "Cc1cc(CNCc2c(C)nn(C)c2N2CCOCC2)no1", "cytotoxicity at 70.5 h": -4.07}, {"smiles": "COc1cc(C2Nc3cc(Cl)ccc3C3=NCCN32)ccc1O", "note": "(stereo unspecified)", "cytotoxicity at 70.5 h": -8.38}, {"smiles": "COc1ccc2c(c1)CCCN(C(=O)NCC1CCCO1)C2", "note": "(stereo unspecified)", "cytotoxicity at 70.5 h": -8.68}, {"smiles": "Cc1cc(C(=O)NCC(F)(F)F)c2c(C3CCCN3)noc2n1", "note": "(stereo unspecified)", "cytotoxicity at 70.5 h": -7.21}, {"smiles": "CNc1cc(-c2ccncc2)ncn1", "cytotoxicity at 70.5 h": 23.1}, {"smiles": "Cc1cc(-c2cc(S(=O)(=O)N3C[C@H](C4CC4)[C@@H](N)C3)c(C)s2)on1", "cytotoxicity at 70.5 h": 19.4}, {"smiles": "CN1C(=O)CCC12CCN(S(=O)(=O)c1ccccc1)CC2", "cytotoxicity at 70.5 h": -13.4}, {"smiles": "CCC(NC(=O)C(C)C)c1ccccc1C", "note": "(stereo unspecified)", "cytotoxicity at 70.5 h": -5.31}, {"smiles": "Cc1cc(CN(C)C(=O)NC2CCN(Cc3ccccc3)C2)no1", "note": "(stereo unspecified)", "cytotoxicity at 70.5 h": 7.2}, {"smiles": "Cc1nc(C(C)C)ncc1C(=O)N1CCC(c2ccccc2C(=O)O)C1", "note": "(stereo unspecified)", "cytotoxicity at 70.5 h": -3.24}, {"smiles": "O=c1ncn(-c2cccc(F)c2)c2ncccc12", "cytotoxicity at 70.5 h": -0.419}, {"smiles": "Cc1n[nH]c(C)c1NC(=O)NCc1cc[nH]n1", "cytotoxicity at 70.5 h": -12.5}, {"smiles": "Cn1cc(C(=O)Nc2cccc(Oc3ccncc3)c2)ccc1=O", "cytotoxicity at 70.5 h": -4.83}, {"smiles": "CCN(C)S(=O)(=O)N(CC)Cc1ccc2c(c1)OCO2", "cytotoxicity at 70.5 h": -17.8}, {"smiles": "CC(C)c1noc(CNc2cccc(-c3nnnn3C)c2)n1", "cytotoxicity at 70.5 h": -8.75}, {"smiles": "COC(=O)N1CCCC(C(=O)Nc2ccccc2CN2CCCC2)C1", "note": "(stereo unspecified)", "cytotoxicity at 70.5 h": -0.192}, {"smiles": "O=C1CCC2(CCN(c3ncc(F)cn3)CC2)N1Cc1ccncc1", "cytotoxicity at 70.5 h": 7.51}, {"smiles": "Cc1nc(CN2C(=O)CCC23CCN(Cc2cccn2C)CC3)cs1", "cytotoxicity at 70.5 h": -9.94}, {"smiles": "CCOc1ccc(CCCC(=O)N2CC[C@H](NC(C)=O)C2)cc1C", "cytotoxicity at 70.5 h": -12.4}, {"smiles": "CNC(=O)[C@@H](CC(C)C)N1CCC[C@H]1C(=O)N(C)Cc1cccnc1", "cytotoxicity at 70.5 h": -6.49}, {"smiles": "CN(c1ncccc1CNS(=O)(=O)N1CCOCC1)C1CCCCC1", "cytotoxicity at 70.5 h": 18.5}, {"smiles": "c1ccc(-c2nnn3c2COC(CNCC2CC2)C3)cc1", "note": "(stereo unspecified)", "cytotoxicity at 70.5 h": -0.253}, {"smiles": "Cc1ccn2cc(C(=O)N3CCCC3c3c(C)nn(C)c3C)nc2c1", "note": "(stereo unspecified)", "cytotoxicity at 70.5 h": -7.44}, {"smiles": "O=C(NC1(c2nnn(CC3CC3)n2)CCCC1)c1ccccc1", "cytotoxicity at 70.5 h": -7.63}, {"smiles": "CN1CC(Oc2ccccc2)=NC(SCC(=O)Nc2ccc(Cl)cc2)=N1", "cytotoxicity at 70.5 h": 0.871}, {"smiles": "COc1ccc(S(=O)(=O)NCCC(O)c2ccoc2)c(C)c1", "note": "(stereo unspecified)", "cytotoxicity at 70.5 h": -5.52}, {"smiles": "CC(C)S(=O)(=O)CC(=O)NCC(Cc1ccc(F)cc1)C(N)=O", "note": "(stereo unspecified)", "cytotoxicity at 70.5 h": 1.75}, {"smiles": "CN(C)C(=O)CO[C@H]1CN(Cc2cccc(C#N)c2)[C@@H]2COC[C@H]12", "cytotoxicity at 70.5 h": 7.63}, {"smiles": "O=C(C1CC1)N1CCC[C@]2(C[C@@H](OCc3ccncc3)CO2)C1", "cytotoxicity at 70.5 h": 0.889}, {"smiles": "CC(C)Oc1ccccc1OCCN1C(=O)CCNC1=O", "cytotoxicity at 70.5 h": 22.4}, {"smiles": "Cc1cc(C)nc(Nc2nccnc2C2CCCN(C(CO)CO)C2)n1", "note": "(stereo unspecified)", "cytotoxicity at 70.5 h": -6.39}, {"smiles": "COc1cccc(COCC(=O)N2CCCC(c3ccn[nH]3)C2)c1", "note": "(stereo unspecified)", "cytotoxicity at 70.5 h": 20.5}, {"smiles": "CC(=O)N1CCN(C(=O)CN2CCCC2c2c(C)nn(C)c2C)CC1", "note": "(stereo unspecified)", "cytotoxicity at 70.5 h": 7.11}, {"smiles": "O=C1CC(c2ccc(F)c(F)c2)c2snc(C(=O)O)c2N1", "note": "(stereo unspecified)", "cytotoxicity at 70.5 h": 8.54}, {"smiles": "Cc1ncsc1C(=O)N1CC[C@@H]2[C@@H](CC1)OCCN2c1cccnc1", "cytotoxicity at 70.5 h": -8.57}, {"smiles": "COc1cccc(OCC2CCCN(Cc3ncc[nH]3)C2)c1", "note": "(stereo unspecified)", "cytotoxicity at 70.5 h": 33.4}, {"smiles": "COCCNC(=O)N1CCN(C(C)C(=O)NC2CCCC2)CC1", "note": "(stereo unspecified)", "cytotoxicity at 70.5 h": -5.61}, {"smiles": "Cc1nnc(SC2CCN(c3sccc3C#N)C2=O)[nH]1", "note": "(stereo unspecified)", "cytotoxicity at 70.5 h": -9.17}, {"smiles": "Cc1ccc(C(=O)N2CC(C(N)=O)O[C@H](C)C2)c(F)c1", "note": "(stereo partly specified)", "cytotoxicity at 70.5 h": -0.939}]}, {"test": "as §1", "format": "toxicity, cell-based", "set-up": "dose 125 nL, time 70.5 hour; cytotoxicity at 70.5 h: concentration not given beside the values", "conditions": "hepg2, 70.5 h, 70.5 h", "values": [{"smiles": "CCOC(=O)CC(c1cccc(OC)c1OC)c1c(C)[nH][nH]c1=O", "note": "(stereo unspecified)", "Inhibition": "-11.36% and -3.674%"}]}]}
